Measured values reported in ChEMBL document CHEMBL5620378, “Structure-based discovery of novel cruzain inhibitors with distinct trypanocidal activity profiles” (Eur J Med Chem, 2023).
The source made the active and inactive calls. No cut-off for these calls is given here.

Assays:
[1] = target: Cruzipain (Trypanosoma cruzi) (UniProt P25779); assay: Inhibition of C-terminal truncated Trypanosoma cruzi Tulahuen Cruzain using Z-FR-AMC as substrate at 100 uM measured for 5 mins by fluorescence based analysis
Sequence of Cruzipain (Trypanosoma cruzi) (P25779 123-467 limits assumed): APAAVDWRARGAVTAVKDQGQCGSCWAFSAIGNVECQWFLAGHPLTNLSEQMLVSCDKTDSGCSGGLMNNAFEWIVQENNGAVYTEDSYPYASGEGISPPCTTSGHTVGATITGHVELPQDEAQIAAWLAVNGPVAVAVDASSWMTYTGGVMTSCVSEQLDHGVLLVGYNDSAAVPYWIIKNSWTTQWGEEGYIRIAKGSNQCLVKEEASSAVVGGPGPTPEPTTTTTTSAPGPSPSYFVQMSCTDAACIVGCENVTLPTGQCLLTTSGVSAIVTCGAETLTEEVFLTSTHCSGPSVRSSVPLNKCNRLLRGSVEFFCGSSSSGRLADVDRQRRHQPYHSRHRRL

[2] = target: Cruzipain (Trypanosoma cruzi) (UniProt P25779); assay: Inhibition of C-terminal truncated Trypanosoma cruzi Tulahuen Cruzain using Z-FR-AMC as substrate at 100 uM preincubated with enzyme for 10 mins and measured for 5 mins by fluorescence based analysis; conditions: time 15.0 min
Cruzipain [3] = target: T1, Cruzipain (Trypanosoma cruzi, UniProt P25779); assay: Inhibition of C-terminal truncated Trypanosoma cruzi Tulahuen Cruzain using Z-FR-AMC as substrate measured for 5 mins by fluorescence based analysis
T1 sequence (P25779 whole entry, the tested form may be a part): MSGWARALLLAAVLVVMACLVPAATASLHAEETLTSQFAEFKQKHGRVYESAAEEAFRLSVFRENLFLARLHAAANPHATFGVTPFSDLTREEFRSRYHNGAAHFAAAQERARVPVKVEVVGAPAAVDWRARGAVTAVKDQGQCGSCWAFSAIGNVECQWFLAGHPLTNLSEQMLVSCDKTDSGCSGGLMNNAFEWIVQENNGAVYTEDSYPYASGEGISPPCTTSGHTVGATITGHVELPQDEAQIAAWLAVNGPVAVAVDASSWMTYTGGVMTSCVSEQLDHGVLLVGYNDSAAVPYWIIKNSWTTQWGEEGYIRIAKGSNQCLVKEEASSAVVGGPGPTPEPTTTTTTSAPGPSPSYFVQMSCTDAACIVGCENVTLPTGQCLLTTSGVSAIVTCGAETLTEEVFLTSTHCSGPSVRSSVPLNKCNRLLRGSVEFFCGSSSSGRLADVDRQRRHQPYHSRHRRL

[4] = target: Cruzipain (Trypanosoma cruzi) (UniProt P25779); assay: Competitive inhibition of C-terminal truncated Trypanosoma cruzi Tulahuen Cruzain assessed as increase in Km(app) using Z-FR-AMC as substrate by Michaelis-menten based analysis
Cruzipain [5] = target: T1, Cruzipain; assay: Competitive inhibition of C-terminal truncated Trypanosoma cruzi Tulahuen Cruzain using Z-FR-AMC as substrate by Michaelis-menten based analysis
[6] = target: Cruzipain (Trypanosoma cruzi) (UniProt P25779); assay: Competitive inhibition of C-terminal truncated Trypanosoma cruzi Tulahuen Cruzain assessed as constant Vmax using Z-FR-AMC as substrate by Lineweaver-Burk plot analysis
[7] = target: Cruzipain (Trypanosoma cruzi) (UniProt P25779); assay: Ratio of IC50 for inhibition of C-terminal truncated Trypanosoma cruzi Tulahuen Cruzain in presence of different concentrations of Triton to IC50 for inhibition of C-terminal truncated Trypanosoma cruzi Tulahuen Cruzain
[8] = target: Cruzipain (Trypanosoma cruzi) (UniProt P25779); assay: Ratio of IC50 for inhibition of C-terminal truncated Trypanosoma cruzi Tulahuen Cruzain in presence of 0% Triton and BSA to IC50 for inhibition of C-terminal truncated Trypanosoma cruzi Tulahuen Cruzain
Cathepsin L = Cathepsin L (Homo sapiens, UniProt P07711); assay: Inhibition of human recombinant Cathepsin L (18 to 333 residues) assessed as residual activity using Z-FR-AMC as substrate at 100 uM measured for 5 mins by fluorescence based analysis; conditions: recombinant human Cathepsin L (residues 18 to 333), probe Z-FR-AMC, read-out: Activity
Sequence of Cathepsin L (P07711 whole entry, the tested form may be a part): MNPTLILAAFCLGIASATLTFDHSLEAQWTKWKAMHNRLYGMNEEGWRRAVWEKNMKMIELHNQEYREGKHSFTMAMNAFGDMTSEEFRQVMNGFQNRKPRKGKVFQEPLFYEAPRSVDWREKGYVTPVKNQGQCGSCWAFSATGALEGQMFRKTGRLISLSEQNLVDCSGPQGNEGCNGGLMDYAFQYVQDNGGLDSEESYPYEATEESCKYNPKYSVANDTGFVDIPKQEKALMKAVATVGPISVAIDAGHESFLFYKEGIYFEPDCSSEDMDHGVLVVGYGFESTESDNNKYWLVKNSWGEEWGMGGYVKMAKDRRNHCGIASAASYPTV

Trypanosoma cruzi [9] = assay: Trypanocidal activity against Trypanosoma cruzi Y infected in C57BL/6 mouse Peritoneal macrophages assessed as reduction in trypomastigotes release at 6.25 uM measured on day 5 post-infection; format: functional; conditions: Peritoneal macrophage, 120 h, time 5 day
Trypanosoma cruzi [10] = assay: Trypanocidal activity against Trypanosoma cruzi Y infected in C57BL/6 mouse Peritoneal macrophages assessed as reduction in trypomastigotes release at 100 uM measured on day 5 post-infection; format: functional; conditions: Peritoneal macrophage, 120 h, time 5 day
Peritoneal macrophage [11] = assay: Cytotoxicity against C57BL/6 mouse Peritoneal macrophages assessed as cell damage at 0.19 to 400 uM measured after 24 hrs by LDH assay; format: toxicity, cell-based; conditions: dose 0.19-400 µM
Peritoneal macrophage [12] = assay: Cytotoxicity against C57BL/6 mouse Peritoneal macrophages infected with Trypanosoma cruzi Y assessed as cell damage at 0.19 to 400 uM measured after 24 hrs by LDH assay; format: toxicity, cell-based; conditions: dose 0.19-400 µM
Peritoneal macrophage [13] = assay: Effect on NO release in C57BL/6 mouse Peritoneal macrophages infected with Trypanosoma cruzi Y measured at 11 days post-infection by Griess reagent based assay; format: functional, cell-based; conditions: time 11.0 day
Trypanosoma cruzi [14] = assay: Trypanocidal activity against trypomastigote form of Trypanosoma cruzi Y assessed as reduction in parasite load at 6.25 uM incubated for 1 hr; format: functional
Trypanosoma cruzi [15] = assay: Trypanocidal activity against epimastigotes form of Trypanosoma cruzi Y assessed as parasite viability by MTT assay; format: functional, organism-based
Trypanosoma cruzi [16] = assay: Trypanocidal activity against epimastigotes form of Trypanosoma cruzi Y assessed as decrease in parasite growth at 200 uM pretreated for 1 hr followed by drug wash-out and measured after 72 hrs by optical microscopic analysis; format: functional
Trypanosoma cruzi [17] = assay: Trypanocidal activity against epimastigotes form of Trypanosoma cruzi Y assessed as decrease in parasite growth at 25 uM measured after 72 hrs by optical microscopic analysis; format: functional
Trypanosoma cruzi [18] = assay: Trypanocidal activity against trypomastigote form of Trypanosoma cruzi Y infected in C57BL/6 mouse Peritoneal macrophages assessed as reduction in intracellular parasite infection at 0.19 to 400 uM preincubated with parasite for 1 hr followed by infection and measured at 3 to 11 days post-infection; format: functional, organism-based; conditions: Peritoneal macrophage, dose 0.19-400 µM, time 3-11 day
Trypanosoma cruzi [19] = assay: Trypanocidal activity against epimastigotes form of Trypanosoma cruzi Y assessed as decrease in parasite growth at 400 uM measured after 72 hrs by optical microscopic analysis; format: functional

`Cc1ccc(CNC(=O)C2Cc3ccc(F)cc3C(=O)O2)o1` (configuration not stated) was tested, and the inhibition [1] was 13%.
Compound `Cc1ccc(CNC(=O)[C@@H]2Cc3ccccc3CN2)o1` has an inhibition [1] of 8%.
`Cc1ccc(CNC(=O)[C@H]2Cc3ccccc3CN2)o1` showed an inhibition [1] of 4%.
For `O=C(NCc1ccccn1)C1Cc2ccccc2CN1` (configuration not stated), the inhibition [1] was 7%.
With `O=C(NCc1ccco1)[C@@H]1Cc2ccccc2CO1` the inhibition [1] was 25%.
For `O=C(NCc1ccco1)C1Cc2ccccc2CN1` (racemic), the inhibition [2] was 100%, the IC50 (Cruzipain [3]) was 3 µM and the inhibition [4] was “Active”. The Ki (Cruzipain [5]) was 4.6 µM, the inhibition [6] was “Active” and the inhibition [1] was 100%. For the same compound, the Ratio IC50 [7] was 3, the Ratio IC50 [8] was 7 and the activity at 5 min, 100 µM (Cathepsin L) was 51%. For the same compound, the inhibition at 6.25 µM (Trypanosoma cruzi [9]) was 18%, the inhibition at 100 µM (Trypanosoma cruzi [10]) was 25% and the Activity (Peritoneal macrophage [11]) was “Non-Toxic”. For the same compound, the Activity (Peritoneal macrophage [12]) was “Non-Toxic”, the Activity (Peritoneal macrophage [13]) was “inactive” and the inhibition at 6.25 µM (Trypanosoma cruzi [14]) was 13%. For the same compound, the Activity (Trypanosoma cruzi [15]) was “inactive”, the inhibition at 200 µM (Trypanosoma cruzi [16]) was 20% and the inhibition at 25 µM (Trypanosoma cruzi [17]) was 43%.
With `O=C(NCc1ccco1)C1Cc2c(F)cccc2CN1` (racemic) the IC50 (Cruzipain [3]) was 26 µM, the inhibition [4] was “Active” and the Ki (Cruzipain [5]) was 27 µM. The inhibition [6] was “Active”, the inhibition [1] was 100% and the Ratio IC50 [7] was 6. The Ratio IC50 [8] was 10, the activity at 5 min, 100 µM (Cathepsin L) was 65% and the inhibition at 6.25 µM (Trypanosoma cruzi [9]) was 51%. The inhibition at 100 µM (Trypanosoma cruzi [10]) was 74%, the Activity (Peritoneal macrophage [11]) was “Non-Toxic” and the Activity (Peritoneal macrophage [12]) was “Non-Toxic”. For the same compound, the Activity (Peritoneal macrophage [13]) was “inactive”, the inhibition at 6.25 µM (Trypanosoma cruzi [14]) was 39% and the Activity (Trypanosoma cruzi [18]) was “Active”. The Activity (Trypanosoma cruzi [15]) was “inactive”, the inhibition at 200 µM (Trypanosoma cruzi [16]) was 12% and the inhibition at 25 µM (Trypanosoma cruzi [17]) was 6%. The inhibition at 400 µM (Trypanosoma cruzi [19]) was 23%.
